Reference: patent US20190119282A1, “IMIDAZOPYRIDAZINES USEFUL AS INHIBITORS OF THE PAR-2 SIGNALING PATHWAY” (Vertex Pharmaceuticals Incorporated, priority 2013, published 2019)

Columns and labels:
[1] = target: T1, PAR2 (HT-29 cells, SLIGKV activation) (Homo sapiens, UniProt P55085); test: Ca FLIPR TETRA assay, ANTAGONIST mode, stimulation with 8 μM SLIGKV; format: cell-based; details: HT-29 cells, antagonist mode, stimulation with 8 μM SLIGKV
T1 construct: host or cells: HT-29 cells
T1 sequence (P55085 26-397): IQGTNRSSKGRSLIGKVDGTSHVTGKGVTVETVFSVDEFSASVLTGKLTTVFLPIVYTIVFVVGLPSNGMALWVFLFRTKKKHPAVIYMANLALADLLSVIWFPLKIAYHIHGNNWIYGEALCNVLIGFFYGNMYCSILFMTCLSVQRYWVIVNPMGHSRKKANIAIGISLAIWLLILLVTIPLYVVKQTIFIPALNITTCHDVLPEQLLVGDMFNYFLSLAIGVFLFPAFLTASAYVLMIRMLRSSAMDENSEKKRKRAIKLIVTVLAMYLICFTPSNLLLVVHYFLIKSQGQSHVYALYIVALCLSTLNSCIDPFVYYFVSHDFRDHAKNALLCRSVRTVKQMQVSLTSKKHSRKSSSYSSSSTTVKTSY
Procedure, shortened: (§1)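 Intracellular calcium is measured by fluorescence in HT-29 cells loaded with calcium 5 reagent. Compounds sit on the cells 30 min at room temperature before challenge with trypsin (3.1 U/mL) or SLIGKV (8 μM) for PAR2, or with thrombin (1 U/mL) or UTP (0.6 μM) as counter-stimuli.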

[2] = test system: Thrombin-stimulated Ca2+ response in HT-29 cells; test: Ca FLIPR TETRA assay, ANTAGONIST mode, stimulation with 1 U/mL Thrombin; format: cell-based, human; details: Homo sapiens; HT-29 cells, antagonist mode, stimulation with 1 U/mL Thrombin
Procedure, shortened: as §1

[3] = target: T2, PAR2 (HT-29 cells, trypsin activation) (Homo sapiens, UniProt P55085); test: Ca FLIPR TETRA assay, ANTAGONIST mode, stimulation with 3.1 U/mL trypsin; format: cell-based; details: HT-29 cells, antagonist mode, stimulation with 3.1 U/mL trypsin
T2 construct: host or cells: HT-29 cells
T2 sequence (P55085 26-397): T1 sequence (P55085 26-397)
Procedure, shortened: as §1

[4] = test system: UTP-stimulated Ca2+ response in HT-29 cells; test: Ca FLIPR TETRA assay, ANTAGONIST mode, stimulation with 0.6 μM UTP; format: cell-based, human; details: Homo sapiens; HT-29 cells, antagonist mode, stimulation with 0.6 μM UTP
Procedure, shortened: as §1

Row | IC50 [1] | IC50 [2] | IC50 [3] | IC50 [4] | Structure (SMILES)
1 | 1.7 nM | 830 nM | 1.7 nM | > 1000 nM | Cc1cccc(-c2cc(C(C)(C)C)c3nc(C(=O)N4CCN(C(=O)C5CC(C)(O)C5)CC4(C)C)cn3n2)c1 (stereo not shown) [Compound I-409]
2 | 6.3 nM | 950 nM | 8.2 nM | > 1000 nM | Cc1cccc(-c2cc(C(C)(C)C)c3nc(C(=O)N4CCN(C(=O)c5nnc(C)o5)CC4(C)C)cn3n2)c1 [Compound I-410]
3 | 4.8 nM | 880 nM | 6.5 nM | > 1000 nM | Cc1cccc(-c2cc(C(C)(C)C)c3nc(C(=O)N4CCN(C(=O)c5ccccn5)CC4(C)C)cn3n2)c1 [Compound I-411]
4 | 6.4 nM | 710 nM | 10 nM | > 1000 nM | Cc1cccc(-c2cc(C(C)(C)C)c3nc(C(=O)N4CCN(C(=O)c5ncccn5)CC4(C)C)cn3n2)c1 [Compound I-412]
5 | 3.4 nM | > 1000 nM | 4.3 nM | > 1000 nM | Cc1nc(C(=O)N2CCN(C(=O)c3cn4nc(-c5ccc(C(F)(F)F)cc5)cc(C(C)C)c4n3)C(C)(C)C2)n[nH]1 [Compound I-413]
6 | 1 nM | > 1000 nM | 1.3 nM | > 1000 nM | Cc1n[nH]c(C(=O)N2CCN(C(=O)c3cn4nc(-c5ccc(F)c(C)c5)cc(C(C)(C)C)c4n3)C(C)(C)C2)n1 [Compound I-414]
7 | 0.3 nM | > 1000 nM | 0.5 nM | > 1000 nM | Cc1ccc(-c2cc(C(C)(C)C)c3nc(C(=O)N4CCN(C(=O)[C@H]5C[C@@](C)(O)C5)CC4(C)C)cn3n2)cc1F [Compound I-415]
8 | 0.6 nM | > 1000 nM | 0.6 nM | > 1000 nM | Cc1nc(C(=O)N2CCN(C(=O)c3cn4nc(-c5ccc(C)c(F)c5)cc(C(C)(C)C)c4n3)C(C)(C)C2)n[nH]1 [Compound I-416]
9 | 7.6 nM | > 1000 nM | 7.1 nM | > 1000 nM | Cc1cc(-c2cc(C(C)(C)C)c3nc(C(=O)N4CCN(c5c[nH]cn5)C(=O)C4(C)C)cn3n2)ccc1F [Compound I-418]
10 | 1.1 nM | > 1000 nM | 0.9 nM | > 1000 nM | CC(C)(C)c1cc(-c2ccc(Cl)c(F)c2)nn2cc(C(=O)N3CCNC(=O)C3(C)C)nc12 [Compound I-419]
11 | 1.7 nM | > 1000 nM | 2.4 nM | > 1000 nM | Cc1cc(C(=O)N2CCN(C(=O)c3cn4nc(-c5ccc(F)cc5)cc(C(C)(C)F)c4n3)C(C)(C)C2)[nH]n1 [Compound I-420]
12 | 1.9 nM | > 1000 nM | 2 nM | > 1000 nM | Cc1ccc(-c2cc(C(C)(C)C)c3nc(C(=O)N4CCN(C(=O)c5cnc(C)[nH]5)CC4(C)C)cn3n2)cc1 [Compound I-422]
13 | 1.7 nM | > 1000 nM | 2.2 nM | > 1000 nM | Cc1ncc(C(=O)N2CCN(C(=O)c3cn4nc(-c5ccc(C(F)(F)F)cc5)cc(C(C)(C)C)c4n3)C(C)(C)C2)[nH]1 [Compound I-423]
14 | 0.9 nM | > 1000 nM | 1.2 nM | > 1000 nM | Cc1ccc(-c2cc(C(C)(C)C)c3nc(C(=O)N4CCN(C(=O)c5ccn[nH]5)CC4(C)C)cn3n2)cc1F [Compound I-424]
15 | 1.5 nM | > 1000 nM | 1.2 nM | > 1000 nM | Cc1ccc(-c2cc(C(C)(C)C)c3nc(C(=O)N4CCN(C(=O)c5ccccn5)CC4(C)C)cn3n2)cc1F [Compound I-425]
16 | 1.7 nM | > 1000 nM | 1.8 nM | > 1000 nM | Cc1ccc(-c2cc(C(C)(C)C)c3nc(C(=O)N4CCN(C(=O)c5ncccn5)CC4(C)C)cn3n2)cc1F [Compound I-426]
17 | 0.5 nM | > 1000 nM | 0.7 nM | > 1000 nM | Cc1cc(C(=O)N2CCN(C(=O)c3cn4nc(-c5ccc(C)c(F)c5)cc(C(C)(C)C)c4n3)C(C)(C)C2)[nH]n1 [Compound I-427]
18 | 30.7 nM | > 1000 nM | 59.7 nM | > 1000 nM | CC(C)(C)c1cc(C2CCC(F)(F)CC2)nn2cc(C(=O)N3CCNC(=O)C3(C)C)nc12 [Compound I-428]
19 | 16.3 nM | > 1000 nM | 23.8 nM | > 1000 nM | CC(C)(C)c1cc(C2CCC(F)(F)CC2)nn2cc(C(=O)N3CCN(c4c[nH]cn4)C(=O)C3(C)C)nc12 [Compound I-430]

Row | IC50 [1] | IC50 [2] | IC50 [3] | IC50 [4] | Structure (SMILES)
20 | 1.4 nM | > 1000 nM | 1.6 nM | > 1000 nM | Cc1ncc(C(=O)N2CCN(C(=O)c3cn4nc(-c5ccc(C)c(F)c5)cc(C(C)(C)C)c4n3)C(C)(C)C2)[nH]1 [Compound I-431]
21 | 1.9 nM | > 1000 nM | 2.1 nM | > 1000 nM | Cc1nnc(C(=O)N2CCN(C(=O)c3cn4nc(-c5ccc(C)c(F)c5)cc(C(C)(C)C)c4n3)C(C)(C)C2)o1 [Compound I-432]
22 | 0.7 nM | > 1000 nM | 1.1 nM | > 1000 nM | Cc1cc(C(=O)N2CCN(C(=O)c3cn4nc(-c5ccc(F)cc5)cc(C(C)(C)C)c4n3)C(C)(C)C2)no1 [Compound I-433]
23 | 0.5 nM | > 1000 nM | 0.5 nM | > 1000 nM | Cc1cc(C(=O)N2CCN(C(=O)c3cn4nc(-c5ccc(Cl)cc5)cc(C(C)(C)C)c4n3)C(C)(C)C2)[nH]n1 [Compound I-434]
24 | 0.8 nM | > 1000 nM | 0.7 nM | > 1000 nM | CC(C)(C)c1cc(-c2ccc(Cl)cc2)nn2cc(C(=O)N3CCN(C(=O)c4ccn[nH]4)CC3(C)C)nc12 [Compound I-435]
25 | 0.7 nM | > 1000 nM | 2 nM | > 1000 nM | Cc1cc(C(=O)N2CCN(C(=O)c3cn4nc(C5CCC(F)(F)CC5)cc(C(C)(C)C)c4n3)C(C)(C)C2)[nH]n1 [Compound I-437]
26 | 1.5 nM | > 1000 nM | 2.6 nM | > 1000 nM | CC(C)(C)c1cc(-c2ccc(F)c(Cl)c2)nn2cc(C(=O)N3CCNC(=O)C3(C)C)nc12 [Compound I-438]
27 | 81 nM | > 1000 nM | 125 nM | > 1000 nM | Cc1cc(F)ccc1-c1cc(C(C)(C)C)c2nc(C(=O)N3CCNC(=O)C3(C)C)cn2n1 [Compound I-439]
28 | 8.1 nM | > 1000 nM | 14 nM | > 1000 nM | Cc1cc(-c2cc(C(C)C)c3nc(C(=O)N4CCN(C)C(=O)C4(C)C)cn3n2)ccc1F [Compound I-440]
29 | 0.5 nM | > 1000 nM | 0.6 nM | > 1000 nM | Cc1ncc(C(=O)N2CCN(C(=O)c3cn4nc(-c5ccc(Cl)cc5)cc(C(C)(C)C)c4n3)C(C)(C)C2)[nH]1 [Compound I-441]
30 | 109 nM | > 1000 nM | 150 nM | > 1000 nM | Cc1cc(-c2cc(C(C)C)c3nc(C(=O)N4CN(Cc5ccccc5)C(=O)C4(C)C)cn3n2)ccc1F [Compound I-442, 3-benzyl-1-[6-(4-fluoro-3-methyl-phenyl)-8-isopropyl-imidazo[1,2-b]pyridazine-2-carbonyl]-5,5-dimethyl-imidazolidin-4-one]
31 | 0.8 nM | > 1000 nM | 1.2 nM | > 1000 nM | Cc1nnc(C(=O)N2CCN(C(=O)c3cn4nc(-c5ccc(Cl)cc5)cc(C(C)(C)C)c4n3)C(C)(C)C2)o1 [Compound I-443]
32 | 0.8 nM | > 1000 nM | 1.3 nM | > 1000 nM | CC(C)(C)c1cc(-c2ccc(Cl)cc2)nn2cc(C(=O)N3CCN(C(=O)c4ccccn4)CC3(C)C)nc12 [Compound I-444]
33 | 0.4 nM | > 1000 nM | 0.9 nM | > 1000 nM | CC(C)(C)c1cc(-c2ccc(Cl)cc2)nn2cc(C(=O)N3CCN(C(=O)c4ncccn4)CC3(C)C)nc12 [Compound I-445]
34 | 56 nM | > 1000 nM | 104 nM | > 1000 nM | CC(C)(C)C1CC(c2ccc(F)cc2)=Nn2cc(C(=O)N3CCNC(=O)C3(C)C)nc21 (stereo not shown) [Compound I-446]
35 | 170 nM | > 1000 nM | 180 nM | > 1000 nM | Cc1cc(C2=Nn3cc(C(=O)N4CCNC(=O)C4(C)C)nc3C(C(C)C)C2)ccc1F (stereo not shown) [Compound I-447]
36 | 25.5 nM | > 1000 nM | 46.5 nM | > 1000 nM | Cc1cc(-c2cc(C(C)C)c3nc(C(=O)N4CCN(CC(C)(C)O)C(=O)C4(C)C)cn3n2)ccc1F [Compound I-449]
37 | 0.1 nM | > 1000 nM | 0.3 nM | > 1000 nM | Cc1cc(C(=O)N2CCN(C(=O)c3cn4nc(-c5ccc(Cl)c(F)c5)cc(C(C)(C)C)c4n3)C(C)(C)C2)[nH]n1 [Compound I-450]
